Patent publication US20060153933A1 (priority 2002, published 2006)
Read-outs that look alike come from different tables or passages of the source.

Columns and labels:
Format in all cases: in vivo
[1] = tested on: Plasmopara viticola (PLASVI); test: whole plant or invertebrate
[2] = tested on: Phytophthora infestans (PHYTIN); test: whole plant or invertebrate; conditions: for pest or weed control at 1.85 ppm: read-out: % Disease Control (observed)
[3] = tested on: Phytophthora infestans (PHYTIN); conditions: 1DC
[4] = tested on: Plasmopara viticola (PLASVI); conditions: 1DC
[5] = PLASVI 2DP, applied alone at 5.56 ppm
[6] = PHYTIN 2DP, applied alone at 5.56 ppm
[7] = Plasmopara viticola, 48 h, read-out: % Disease Control (observed), 2DP, 1.85 ppm alone
[8] = Phytophthora infestans, 24 h, read-out: % Disease Control (observed), 1DP, 0.62 ppm alone
[9] = Phytophthora infestans, 24 h, read-out: % Disease Control (observed), 1DP, 5.56 ppm alone
[10] = Plasmopara viticola, 48 h, read-out: % Disease Control (observed), 2DP, 0.62 ppm alone

Metiram
% Disease Control (Observed) ([1]; PLASVI 2DP, applied alone at 1.85 ppm): 5.3% | % Disease Control (Observed) [1, 5]: 8.8% | % Disease Control (Observed) [2, 6]: 0.0%

C[C@@]1(c2ccc(Oc3ccccc3)cc2)OC(=O)N(Nc2ccccc2)C1=O (racemic) [Famoxadone, famoxadone]
pest or weed control at 1.85 ppm [1, 7]: 31.6% | pest or weed control at 1.85 ppm ([2]; Phytophthora infestans, 48 h): 47.4%

COCC(=O)N(c1c(C)cccc1C)N1CCOC1=O [Oxadixyl, oxadixyl]
pest or weed control at 0.2 ppm ([1]; Plasmopara viticola, 24 h, read-out: % Disease Control (observed), 1DP, 0.20 ppm alone (Formula III 0.00 ppm)): 19.3% | pest or weed control at 0.62 ppm [2, 8]: 0% | pest or weed control at 1.9 ppm ([2]; Phytophthora infestans, 24 h, read-out: % Disease Control (observed), 1DP, 1.90 ppm alone): 24.6%

CCCOC(=O)NCCCN(C)C [Propamocarb, propamocarb]
pest or weed control at 5.56 ppm ([1]; Plasmopara viticola, 48 h, read-out: % Disease Control (observed), 2DP, 5.56 ppm alone): 0% | pest or weed control at 1.85 ppm ([2]; Phytophthora infestans, 48 h): 1.8% | pest or weed control at 0.62 ppm ([2]; Phytophthora infestans, 48 h, read-out: % Disease Control (observed), 2DP, 0.62 ppm alone): 0%

Cc1ccc(-c2c(Cl)nc(C#N)n2S(=O)(=O)N(C)C)cc1 [Cyazofamid, cyazofamid]
pest or weed control at 0.62 ppm ([1]; Plasmopara viticola, 72 h, read-out: % Disease Control (observed), 3DP, 0.62 ppm alone): 7% | pest or weed control at 0.62 ppm ([2]; Phytophthora infestans, 72 h, read-out: % Disease Control (observed), 3DP, 0.62 ppm alone): 82.5%

COCC(=O)N(c1c(C)cccc1C)C(C)C(=O)OC (centres unmarked) [Metalaxyl, metalaxyl]
pest or weed control at 1.9 ppm ([1]; Plasmopara viticola, 72 h, read-out: % Disease Control (observed), 3DP, 1.90 ppm alone): 15.8% | pest or weed control at 5.6 ppm ([1]; Plasmopara viticola, 72 h, read-out: % Disease Control (observed), 3DP, 5.60 ppm alone): 21.1% | pest or weed control at 5.56 ppm [2, 9]: 0%

[Cu+2].[OH-].[OH-] [Cu(OH)2, copper hydroxide]
% Disease Control (Observed) ([1]; 3DP, 16.70 ppm alone): 10.5% | % Disease Control (Observed) ([2]; 3DP, 5.56 ppm alone): 14.0%

CCC(C)(NC(=O)c1cc(Cl)c(C)c(Cl)c1)C(=O)CCl (centres unmarked) [Zoxamide, zoxamide]
% Disease Control (Observed) ([1]; 4DP, 1.90 ppm alone): 5.30% | % Disease Control (Observed) ([1]; 4DP, 5.60 ppm alone): 57.90% | % Disease Control (Observed) ([1]; PLASVI 2DP, applied alone at 0.4 ppm): 3.5% | % Disease Control (Observed) ([1]; PLASVI 2DP, applied alone at 1.1 ppm): 21.1% | % Disease Control (Observed) ([1]; PLASVI 2DP, applied alone at 3.3 ppm): 36.8% | % Disease Control (Observed) ([1]; PLASVI 3DP, applied alone at 0.4 ppm): 3.5% | % Disease Control (Observed) ([1]; PLASVI 3DP, applied alone at 1.1 ppm): 17.5% | % Disease Control (Observed) ([1]; PLASVI 6DP, applied alone at 3.3 ppm): 10.5% | % Disease Control (Observed) ([2]; 4DP, 1.90 ppm alone): 55.30% | % Disease Control (Observed) ([2]; 4DP, 11.20 ppm alone): 19.30% | % Disease Control (Observed) ([2]; 4DP, 16.70 ppm alone): 34.90% | % Disease Control (Observed) ([2]; PHYTIN 2DP, applied alone at 0.4 ppm): 1.8% | % Disease Control (Observed) ([2]; PHYTIN 2DP, applied alone at 1.1 ppm): 14% | % Disease Control (Observed) ([2]; PHYTIN 3DP, applied alone at 1.1 ppm): 10.5% | % Disease Control (Observed) ([2]; PHYTIN 6DP, applied alone at 1.1 ppm): 7% | % Disease Control (Observed) ([2]; PHYTIN 6DP, applied alone at 3.3 ppm): 40.4%

N#Cc1c(Cl)c(Cl)c(Cl)c(C#N)c1Cl [Chlorothalonil, chlorothalonil]
pest or weed control at 1.85 ppm ([1]; Plasmopara viticola, 24 h, read-out: % Disease Control (observed), 1DP, 1.85 ppm alone): 0% | pest or weed control at 5.56 ppm [2, 9]: 0%

CCO[PH](=O)O [Fosetyl-Al, fosetyl-Al]
% Disease Control (Observed) ([1]; 7DP, 1.85 ppm alone): 8.8% | % Disease Control (Observed) ([1]; 7DP, 5.56 ppm alone): 10.5% | % Disease Control (Observed) ([1]; 7DP, 16.70 ppm alone): 12.3% | % Disease Control (Observed) ([1]; PLASVI 6DP, applied alone at 33.3 ppm): 0% | % Disease Control (Observed) ([2]; PHYTIN 6DP, applied alone at 11.1 ppm): 0% | % Disease Control (Observed) ([2]; PHYTIN 6DP, applied alone at 33.3 ppm): 0% | % Disease Control (Observed) ([2]; in vivo): 0.0%

CC(C)OC(=O)N[C@H](C(=O)N[C@H](C)c1nc2ccc(F)cc2s1)C(C)C [Benthivalicarb, benthivalicarb]
% Disease Control (Observed) ([1]; 1DP, 0.62 ppm alone): 57.9% | % Disease Control (Observed) ([2]; 1DP, 0.62 ppm alone): 31.6% | % Disease Control (Observed) ([3]; 0.62 ppm alone): 28.1%

COC(=O)CC(NC(=O)[C@@H](NC(=O)OC(C)C)C(C)C)c1ccc(Cl)cc1 (mixture of isomers) [Compound 1, methyl (±)RS-[3-(N-isopropoxycarbonyl-S-valinyl)amino]-3-(4-chlorophenyl)propanoate]
% Disease Control (Observed) ([1]; 2DP, 1.85 ppm alone): 5.3% | % Disease Control (Observed) ([2]; 2DP, 0.62 ppm alone): 7.0% | % Disease Control (Observed) ([2]; in vivo): 40.4%

Cc1ccc(C(C)NC(=O)[C@@H](NC(=O)OC(C)C)C(C)C)cc1 (some centres unmarked) [Iprovalicarb, iprovalicarb]
% Disease Control (Observed) ([1]; 3DP, 1.85 ppm alone): 8.8% | % Disease Control (Observed) ([1]; 3DP, 5.56 ppm alone): 26.3% | % Disease Control (Observed) ([4]; 5.56 ppm alone): 40.0% | % Disease Control (Observed) ([4]; 16.70 ppm alone): 50.0% | % Disease Control (Observed) ([2]; 3DP, 5.56 ppm alone): 1.8% | % Disease Control (Observed) ([2]; 3DP, 16.70 ppm alone): 33.3%

CCNc1nc(CC)c(C(=O)NC(C#N)c2cccs2)s1 (centres unmarked) [Ethaboxam, ethaboxam]
% Disease Control (Observed) ([1]; 2DP, 1.85 ppm alone): 50.9% | % Disease Control (Observed) ([1]; 2DP, 5.56 ppm alone): 78.9% | % Disease Control (Observed) ([2]; 2DP, 0.62 ppm alone): 10.5%

O=C1C2CC=CCC2C(=O)N1SC(Cl)(Cl)Cl (centres unmarked) [Captan, captan]
pest or weed control at 5.56 ppm [2, 9]: 0%

mancozeb
% Disease Control (Observed) ([1]; 1DP, 2.7 ppm alone): 14% | % Disease Control (Observed) ([1]; 1DP, 8.0 ppm alone): 33.3% | % Disease Control (Observed) ([1]; 4DP, 1.9 ppm alone): 0% | % Disease Control (Observed) ([1]; 4DP, 16.7 ppm alone): 12.3% | % Disease Control (Observed) ([1]; PLASVI 3DP, applied alone at 8.9 ppm): 17.5% | % Disease Control (Observed) ([2]; 4DP, 0.60 ppm alone): 5.3% | % Disease Control (Observed) ([2]; 4DP, 1.9 ppm alone): 8.8% | % Disease Control (Observed) ([2]; 4DP, 5.6 ppm alone): 26.3% | % Disease Control (Observed) ([2]; 4DP, 16.70 ppm alone): 40.4% | % Disease Control (Observed) ([2]; PHYTIN 3DP, applied alone at 8.9 ppm): 5.3%

CO/C=C(/C(=O)OC)c1ccccc1Oc1cc(Oc2ccccc2C#N)ncn1 [Azoxystrobin, azoxystrobin]
% Disease Control (Observed) ([1]; 3DP, 1.85 ppm alone): 28.1% | % Disease Control (Observed) ([1]; 3DP, 5.56 ppm alone): 59.6% | % Disease Control (Observed) ([2]; 3DP, 5.56 ppm alone): 33.3%

[Cl-].[Cu+2].[Cu+2].[OH-].[OH-].[OH-] [Cu oxychloride, copper oxychloride]
% Disease Control (Observed) ([1]; PLASVI 6DP, applied alone at 38.3 ppm): 3.5% | % Disease Control (Observed) ([2]; 3DP, 5.56 ppm alone): 17.5% | % Disease Control (Observed) ([2]; 3DP, 16.70 ppm alone): 24.6% | % Disease Control (Observed) ([2]; PHYTIN 6DP, applied alone at 12.8 ppm): 0% | % Disease Control (Observed) ([2]; PHYTIN 6DP, applied alone at 38.3 ppm): 22.8% | % Disease Control (Observed) ([2]; Table 10, PHYTIN (3DP) as printed, 16.70 ppm alone): 7.0%

COC(=O)N(OC)c1ccccc1COc1ccn(-c2ccc(Cl)cc2)n1 [Pyraclostrobin, pyraclostrobin]
pest or weed control at 1.85 ppm ([1]; Plasmopara viticola, 24 h, read-out: % Disease Control (observed), 1DP, Table 14, 1.85 ppm alone): 0% | pest or weed control at 5.56 ppm ([1]; Plasmopara viticola, 24 h, read-out: % Disease Control (observed), 1DP, Table 14, 5.56 ppm alone): 0% | pest or weed control at 0.62 ppm [1, 10]: 61.4% | pest or weed control at 1.85 ppm ([2]; Phytophthora infestans, 48 h): 78.9% | pest or weed control at 5.56 ppm ([2]; Phytophthora infestans, 48 h, read-out: % Disease Control (observed), 2DP, 5.56 ppm alone): 89.5%

CC[C@H](CS(=O)(=O)[C@@H](C)c1ccc(C#N)cc1)NC(=O)Oc1ccc(F)cc1 [Formula IIIa, 4-fluorophenyl(1S)-1-({[(1S)-1-(4-cyanophenyl)ethyl]sulfonyl}methyl) propylcarbamate]
% Disease Control (Observed) ([1]; 4DP, 1.9 ppm alone): 14.0% | % Disease Control (Observed) ([1]; 4DP, 1.90 ppm alone): 14.00% | % Disease Control (Observed) ([1]; 4DP, 2.8 ppm alone): 76.3% | % Disease Control (Observed) ([2]; 4DP, 0.3 ppm alone): 19.3% | % Disease Control (Observed) ([2]; 4DP, 0.60 ppm alone): 10.50% | % Disease Control (Observed) ([2]; 4DP, 0.9 ppm alone): 73.7% | % Disease Control (Observed) ([2]; 4DP, 1.9 ppm alone): 78.9% | % Disease Control (Observed) ([2]; 4DP, 1.90 ppm alone): 78.90%

CON=C(C(=O)OC)c1ccccc1CON=C(C)c1cccc(C(F)(F)F)c1 [Trifloxystrobin, trifloxystrobin]
pest or weed control at 0.62 ppm [1, 10]: 1.8% | pest or weed control at 1.85 ppm [1, 7]: 21.1% | pest or weed control at 1.85 ppm ([2]; Phytophthora infestans, 48 h): 24.6%

O=C1c2ccccc2C(=O)N1SC(Cl)(Cl)Cl [Folpet, folpet]
% Disease Control (Observed) ([1]; PLASVI 2DP, applied alone at 4.3 ppm): 1.8% | % Disease Control (Observed) ([1]; PLASVI 2DP, applied alone at 12.8 ppm): 22.8% | pest or weed control at 5.56 ppm ([1]; Plasmopara viticola, 24 h, read-out: % Disease Control (observed), 1DP, 5.56 ppm alone): 0% | % Disease Control (Observed) ([2]; PHYTIN 2DP, applied alone at 4.3 ppm): 1.8% | % Disease Control (Observed) ([2]; PHYTIN 2DP, applied alone at 12.8 ppm): 5.3% | pest or weed control at 0.62 ppm [2, 8]: 0%

COC(=O)C(C)N(C(=O)Cc1ccccc1)c1c(C)cccc1C (centres unmarked) [Benalaxyl, benalaxyl]
% Disease Control (Observed) ([4]; 0.60 ppm alone): 24.6% | % Disease Control (Observed) ([3]; 1.90 ppm alone): 8.8% | % Disease Control (Observed) ([3]; 16.70 ppm alone): 12.3%

Maneb
% Disease Control (Observed) ([1]; PLASVI 3DP, applied alone at 16.70 ppm): 24.6% | % Disease Control (Observed) ([2]; PHYTIN 3DP, applied alone at 5.56 ppm): 14.0% | % Disease Control (Observed) ([2]; in vivo): 3.5%

O=[N+]([O-])c1cc(C(F)(F)F)c(Cl)c([N+](=O)[O-])c1Nc1ncc(C(F)(F)F)cc1Cl [Fluazinam, fluazinam]
pest or weed control at 1.85 ppm [1, 7]: 14% | pest or weed control at 1.85 ppm ([2]; Phytophthora infestans, 72 h): 12.3% | pest or weed control at 5.56 ppm ([2]; Phytophthora infestans, 72 h, read-out: % Disease Control (observed), 3DP, 5.56 ppm alone): 50.9%

Propineb
% Disease Control (Observed) [1, 5]: 0.0% | % Disease Control (Observed) [2, 6]: 0.0%

CO/C=C(/C(=O)OC)c1ccccc1COc1cccc(C(F)(F)F)n1 [Picoxystrobin, picoxystrobin]
% Disease Control (Observed) ([1]; 3DP, 5.56 ppm alone): 61.4% | % Disease Control (Observed) ([2]; 3DP, 5.56 ppm alone): 59.6%
